From article PMC7442609 (ACS chemical biology, 2020)
Like-named read-outs stand apart in the source and are kept apart here. Peptide text beside a SMILES is read from it. * marks the point of attachment. Cbz = O=C(OCc1ccccc1)*

Tests used:
[1] = system: RAW-Difluo mLC3 cells; test: RAW-Difluo mLC3 autophagy reporter assay; format: cell-based, murine; conditions: 16 hours
[2] = system: FoxM1; format: cell-based, murine; conditions: 5 μM, 16 hours, western blot
[3] = system: Parkin; format: cell-based, murine; conditions: 5 μM, 16 hr, western blot
[4] = system: PINK1; format: cell-based, murine; conditions: 5 μM, 16 hr, western blot
[5] = system: Mtb H37Rv; test: Resazurin microtiter assay; format: cell-based, Mycobacterium tuberculosis
[6] = system: luxBCADE-expressing H37Rv Mtb in THP-1 cells; format: cell-based, Mycobacterium tuberculosis; conditions: for effect of WRT on anti-Mtb activity in macrophages: THP-1 cells, + WRT (15 μM), 7 days
[7] = target: T1, proteasomes (Mus musculus, UniProt O55234+P70195+Q60692); test: Ub-R-GFP reporter assay of proteasomal activity in cells; format: cell-based, murine
T1 sequence (O55234 60-264): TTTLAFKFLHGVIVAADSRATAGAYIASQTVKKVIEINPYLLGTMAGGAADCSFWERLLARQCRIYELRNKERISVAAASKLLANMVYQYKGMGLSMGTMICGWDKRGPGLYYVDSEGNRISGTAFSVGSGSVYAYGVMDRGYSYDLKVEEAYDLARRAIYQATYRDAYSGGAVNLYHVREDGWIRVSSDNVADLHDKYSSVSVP
T1 sequence (Q60692 1-238): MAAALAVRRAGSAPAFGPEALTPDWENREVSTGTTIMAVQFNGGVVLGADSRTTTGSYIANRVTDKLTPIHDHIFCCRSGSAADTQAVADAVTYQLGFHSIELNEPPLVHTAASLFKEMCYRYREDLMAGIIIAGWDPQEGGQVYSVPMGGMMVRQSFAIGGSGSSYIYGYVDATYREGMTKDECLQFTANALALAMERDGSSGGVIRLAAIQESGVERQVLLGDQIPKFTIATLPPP
T1 sequence (P70195 44-277): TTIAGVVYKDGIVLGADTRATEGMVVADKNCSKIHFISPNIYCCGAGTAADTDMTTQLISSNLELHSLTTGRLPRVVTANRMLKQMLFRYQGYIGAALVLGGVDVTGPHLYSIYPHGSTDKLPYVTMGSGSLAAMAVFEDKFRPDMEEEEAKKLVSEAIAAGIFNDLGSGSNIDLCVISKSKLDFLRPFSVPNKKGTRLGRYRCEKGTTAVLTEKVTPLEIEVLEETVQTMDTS

[8] = target: 20S proteasome (Homo sapiens, UniProt P28072+P28074+Q99436); test: Proteasome-Glo assay on purified 20S proteasome; format: biochemical; conditions: 1 hr; for IC50 caspase-like activity / IC50 chymotrypsin-like activity / IC50 trypsin-like activity: purified 20S proteasome
[9] = system: RFP-LC3-THP-1 cells infected with Mtb; format: cell-based, human; conditions: 16 hr at 10 μM, TSR 2.5 μM
[10] = system: THP-1 cells; format: cell-based, human; conditions: uninfected THP-1 cells
[11] = system: EIF-2α; format: cell-based, murine; conditions: 5 μM, 16 hours, western blot

Compound: C=C(NC(=O)C(=C)NC(=O)c1ccc2c(n1)-c1coc(n1)C(=C)NC(=O)C(=C)NC(=O)c1nc(oc1C)C(=C)NC(=O)C(C(C)(C)O)NC(=O)C(=C)NC(=O)c1nc(oc1C)/C(=C/C)NC(=O)C(C(C)O)NC(=O)c1csc-2n1)C(N)=O (stereo not drawn) [BER, berninamycin]
- induction of autophagy (in words) [1]: also induced autophagy

Compound: C=C(NC(=O)C(=C)NC(=O)c1csc(-c2ccc3c(n2)-c2csc(n2)-c2csc(n2)C2C(C)CC(O)N2C(=O)C(Cc2ccc(O)cc2)N=C(O)C2CSC(=N2)C(Cc2ccccc2)N=C(O)c2csc(n2)C(CC(N)=O)N=C(O)c2nc-3oc2C)n1)C(=O)O (stereo not drawn) [GE, GE37468]
- induction of autophagy (in words) [1]: induced autophagy at concentrations comparable to TSR

Compound: CC(C)C[C@@H](C=O)NC(=O)[C@H](CC(C)C)NC(=O)[C@H](CC(C)C)NC(=O)OCc1ccccc1 [MG-132] (Cbz-Leu-Leu-Leu-aldehyde)
- FoxM1 protein levels [2]: significant decrease in FoxM1 protein levels
- Parkin expression level [3]: little to no increase over basal levels
- PINK1 expression level [4]: little to no increase over basal levels

Compound: C=C(NC(=O)c1csc(-c2nc3c(cc2O)-c2nc(cs2)C(=O)NC(C(C)O)C(=O)N/C(=C\C)c2nc(cs2)C(=O)NC2CC(O)C(=O)OCc4cccc5[nH]c(c(C)c45)C(=O)SCC(NC(=O)c4csc2n4)c2nc-3cs2)n1)C(N)=O (stereo not drawn) [NOS, nosiheptide]
- activity against Mtb in vitro (REMA, in words) ([5]; Mtb H37Rv in culture, 4 days): active against Mtb in vitro at IC50s comparable to kanamycin
- induction of autophagy (in words) [1]: induced autophagy at concentrations comparable to TSR
- inhibition of intracellular Mtb growth [6]: potent inhibitory effects on intracellular Mtb growth
- effect of WRT on anti-Mtb activity in macrophages [6]: no significant effect on their anti-Mtb activity in macrophages
- EC50 [7]: 0.38 µM
- FoxM1 protein levels [2]: no effect on FoxM1 levels
- direct inhibition of reconstituted 20S proteasome [8]: directly inhibited the proteasome
- IC50 caspase-like activity [8]: low micromolar
- IC50 chymotrypsin-like activity [8]: low micromolar
- IC50 trypsin-like activity [8]: low micromolar
- autophagosomes (RFP-LC3 puncta) per Mtb infected cell [9]: significantly increased the number of RFP-LC3 puncta per cell

Compound: C=C(NC(=O)C(=C)NC(=O)c1csc(C2=N[C@@H]3c4csc(n4)[C@H]4NC(=O)c5csc(n5)[C@H]([C@](C)(O)[C@@H](C)O)NC(=O)[C@H]5CSC(=N5)/C(=C/C)NC(=O)[C@H]([C@@H](C)O)NC(=O)c5csc(n5)[C@]3(CC2)NC(=O)[C@H](C)NC(=O)C(=C)NC(=O)[C@H](C)NC(=O)[C@H]([C@@H](C)CC)N[C@@H]2C=Cc3c([C@H](C)O)cc(nc3[C@H]2O)C(=O)O[C@@H]4C)n1)C(N)=O [TSR, thiostrepton]
- activity against Mtb in vitro (REMA, in words) [5]: active against Mtb in vitro at IC50s comparable to kanamycin
- induction of autophagy (in words) [1]: potently induced autophagy
- inhibition of intracellular Mtb growth [6]: potent inhibitory effects on intracellular Mtb growth
- effect of WRT on anti-Mtb activity in macrophages [6]: no significant effect on their anti-Mtb activity in macrophages
- EC50 [7]: 1.45 µM
- FoxM1 protein levels [2]: significant decrease in FoxM1 protein levels
- direct inhibition of reconstituted 20S proteasome [8]: directly inhibited the proteasome
- IC50 caspase-like activity [8]: substantially less active
- IC50 chymotrypsin-like activity [8]: sub-micromolar
- IC50 trypsin-like activity [8]: sub-micromolar
- autophagosomes (RFP-LC3 puncta) per Mtb infected cell [9]: significantly increased the number of RFP-LC3 puncta per cell

Compound: COC[C@H]1OC(=O)c2coc3c2[C@@]1(C)C1=C(C3=O)[C@@H]2CCC(=O)[C@@]2(C)C[C@H]1OC(C)=O [WRT, wortmannin, reference compound]
- effect on thiopeptide-induced autophagy [10]: abrogates thiopeptide-induced autophagy
- autophagosomes (RFP-LC3 puncta) per Mtb infected cell [9]: < 5

Compound: thiocillin III [TCIII]
- activity against Mtb in vitro (REMA, in words) ([5]; Mtb H37Rv in culture, 4 days): active against Mtb in vitro at IC50s comparable to kanamycin
- induction of autophagy (in words) [1]: also induced autophagy
- EC50 ([1]; read-out: EC50 induction of autophagy (RFP-LC3 puncta per cell)): 0.09 µM
- EIF-2α phosphorylation [11]: led to EIF-2α phosphorylation
- inhibition of intracellular Mtb growth [6]: potent inhibitory effects on intracellular Mtb growth
- effect of WRT on anti-Mtb activity in macrophages [6]: no significant effect on their anti-Mtb activity in macrophages
- autophagosomes (RFP-LC3 puncta) per Mtb infected cell [9]: significantly increased the number of RFP-LC3 puncta per cell
